pEC50: −log10 of the molar value. Where two headings read alike, the source gives them in different places. Starred links: 1 amine or outer side, 2 acyl side, 3 side chain; linkers in the order of their positions; H or OH if unused. Non-standard residues stand in square brackets, D forms with d. Residues, ends and D or L forms follow the SMILES beside them. Groups on a side chain read outwards from the residue. *: point of attachment. C20 diacid = O=C(O)CCCCCCCCCCCCCCCCCCC(=O)*; Pro(cis-4-F) = O=C(O)[C@@H]1C[C@H](F)CN1; γGlu = O=C(O)[C@H](CCC(=O)[*:2])N[*:1]; Nle = CCCC[C@H](N)C(=O)O; AEEA = NCCOCCOCC(=O)O
Legend:
hCRHR1 = target: T1, hCRHR1 (Homo sapiens, UniProt P34998); assay: HTRF cAMP assay, determination of hCRHR1 potency (peptide libraries 5 conc., purified peptides 11 conc.); assay type: cell-based; settings: for EC50: library peptides, matched molecular pairs L vs Nle in position X^38, read-out: Potency hCRHR1 pEC50 (converted)
T1 sequence (P34998 24-415): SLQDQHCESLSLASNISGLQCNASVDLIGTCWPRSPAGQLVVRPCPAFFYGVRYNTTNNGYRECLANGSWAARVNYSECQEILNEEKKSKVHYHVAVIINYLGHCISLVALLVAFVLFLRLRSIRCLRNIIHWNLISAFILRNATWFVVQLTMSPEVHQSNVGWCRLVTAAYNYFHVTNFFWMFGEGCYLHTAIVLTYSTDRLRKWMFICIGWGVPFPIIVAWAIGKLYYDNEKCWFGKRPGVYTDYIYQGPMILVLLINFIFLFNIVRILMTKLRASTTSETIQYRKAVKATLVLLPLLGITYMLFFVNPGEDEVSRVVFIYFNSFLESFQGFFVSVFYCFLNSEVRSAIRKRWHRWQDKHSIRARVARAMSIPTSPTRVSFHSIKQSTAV
How it was run: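 CHO-K1 cells stably expressing human CRHR1, thawed from frozen stocks just before use, were stimulated in suspension with agonist peptides. cAMP was measured by HTRF competitive immunoassay (cryptate anti-cAMP antibody vs d2-cAMP).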

hCRHR2 = target: T2, hCRHR2 (Homo sapiens, UniProt Q13324); assay: HTRF cAMP assay, determination of hCRHR2 potency (peptide libraries 5 conc., purified peptides 11 conc.); assay type: cell-based; settings: for EC50: library peptides, matched molecular pairs L vs Nle in position X^38, read-out: Potency hCRHR2 pEC50 (converted)
T2 sequence (Q13324 1-411): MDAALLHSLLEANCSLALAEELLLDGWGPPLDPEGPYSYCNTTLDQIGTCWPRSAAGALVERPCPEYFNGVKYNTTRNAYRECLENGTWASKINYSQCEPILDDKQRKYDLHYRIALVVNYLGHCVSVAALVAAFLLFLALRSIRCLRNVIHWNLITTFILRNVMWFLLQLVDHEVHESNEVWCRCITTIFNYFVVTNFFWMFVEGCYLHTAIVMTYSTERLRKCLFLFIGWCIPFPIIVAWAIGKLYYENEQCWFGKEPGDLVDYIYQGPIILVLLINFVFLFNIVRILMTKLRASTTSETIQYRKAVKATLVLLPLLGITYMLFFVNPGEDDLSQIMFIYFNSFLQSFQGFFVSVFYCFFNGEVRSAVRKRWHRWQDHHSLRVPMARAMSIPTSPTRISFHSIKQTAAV
How it was run: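 Agonist peptides are added to suspended, freshly thawed CHO-K1 cells that stably carry the human receptor. Intracellular cAMP competes with d2-cAMP for a cryptate-tagged antibody, lowering the FRET signal. A variable-slope sigmoid curve is fitted to obtain EC50.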

EC50 (hCRHR1) [µM] | EC50 (hCRHR2) [µM] | SMILES | pEC50 (hCRHR1) | pEC50 (hCRHR2)
100 | 0.000631 | CCCC[C@H](NC(=O)[C@@H](NC(=O)[C@H](CCC(=O)O)NC(=O)[C@H](C)NC(=O)[C@H](CC(N)=O)NC(=O)[C@@H](NC(=O)[C@H](CCCCNC(=O)COCCOCCNC(=O)COCCOCCNC(=O)CC[C@H](NC(=O)CC[C@H](NC(=O)CCCCCCCCCCCCCCCCCCC(=O)O)C(=O)O)C(=O)O)NC(=O)[C@H](C)NC(=O)[C@H](CCC(=O)O)NC(=O)[C@H](CCC(=O)O)NC(=O)[C@H](CCCNC(=N)N)NC(=O)[C@H](CCC(N)=O)NC(=O)[C@H](CO)NC(=O)[C@H](CCCNC(=N)N)NC(=O)[C@H](C)NC(=O)[C@H](CCCNC(=N)N)NC(=O)[C@H](C)NC(=O)[C@H](CCC(N)=O)NC(=O)[C@H](CCC(=O)O)NC(=O)[C@H](CC(C)C)NC(=O)[C@H](CC(C)C)NC(=O)[C@@H](NC(=O)[C@H](CCC(N)=O)NC(=O)[C@H](CC(C)C)NC(=O)[C@H](CC(C)C)NC(=O)CNC(=O)[C@@H](NC(=O)[C@@H]1CCCN1C(=O)[C@@H](NC(=O)[C@H](CC(=O)O)NC(=O)[C@H](CC(C)C)NC(=O)[C@H](CO)NC(=O)[C@H](CC(C)C)NC(=O)[C@@H](NC(=O)[C@@H](N)[C@@H](C)CC)C(C)C)C(C)C)[C@@H](C)CC)[C@@H](C)CC)[C@@H](C)O)[C@@H](C)CC)C(=O)N[C@@H](C)C(=O)N[C@@H](CCC(=O)O)C(=O)N[C@H](C(N)=O)C(C)C [compound 71] (H-IVLSLDVPIGLLQILLEQARARSQREEAK([AEEA-AEEA-γGlu-γGlu-C20 diacid])TNAEI[Nle]AEV-NH2) |  | 
25.1 | 0.001 | CC[C@H](C)[C@H](N)C(=O)N[C@H](C(=O)N[C@@H](CC(C)C)C(=O)N[C@@H](CO)C(=O)N[C@@H](CC(C)C)C(=O)N[C@@H](CC(=O)O)C(=O)N[C@H](C(=O)N1C[C@@H](F)C[C@H]1C(=O)N[C@H](C(=O)NCC(=O)N[C@@H](CC(C)C)C(=O)N[C@@H](CC(C)C)C(=O)N[C@@H](CCC(N)=O)C(=O)N[C@H](C(=O)N[C@@H](CC(C)C)C(=O)N[C@@H](CC(C)C)C(=O)N[C@H](C(=O)N[C@@H](CCC(N)=O)C(=O)N[C@@H](C)C(=O)N[C@@H](CCCNC(=N)N)C(=O)N[C@@H](C)C(=O)N[C@@H](CCCNC(=N)N)C(=O)N[C@@H](C)C(=O)N[C@@H](C)C(=O)N[C@@H](CCCNC(=N)N)C(=O)N[C@@H](CCC(=O)O)C(=O)N[C@@H](CCC(N)=O)C(=O)N[C@@H](C)C(=O)N[C@@H](CCCCNC(=O)COCCOCCNC(=O)COCCOCCNC(=O)CC[C@H](NC(=O)CC[C@H](NC(=O)CCCCCCCCCCCCCCCCCCC(=O)O)C(=O)O)C(=O)O)C(=O)N[C@H](C(=O)N[C@@H](CC(N)=O)C(=O)N[C@@H](C)C(=O)N[C@@H](CCC(=O)O)C(=O)N[C@H](C(=O)N[C@@H](CC(C)C)C(=O)N[C@@H](C)C(=O)N[C@@H](CCC(=O)O)C(=O)N[C@H](C(N)=O)C(C)C)[C@@H](C)CC)[C@@H](C)O)[C@@H](C)O)[C@@H](C)CC)[C@@H](C)CC)C(C)C)C(C)C [compound 80] (H-IVLSLDV[Pro(cis-4-F)]IGLLQILLTQARARAAREQAK([AEEA-AEEA-γGlu-γGlu-C20 diacid])TNAEILAEV-NH2) |  | 
63.1 | 0.000251 | CC[C@H](C)[C@H](N)C(=O)N[C@H](C(=O)N[C@@H](CC(C)C)C(=O)N[C@@H](CO)C(=O)N[C@@H](CC(C)C)C(=O)N[C@@H](CC(=O)O)C(=O)N[C@H](C(=O)N1CCC[C@H]1C(=O)N[C@H](C(=O)NCC(=O)N[C@@H](CC(C)C)C(=O)N[C@@H](CC(C)C)C(=O)N[C@@H](CCC(N)=O)C(=O)N[C@H](C(=O)N[C@@H](CC(C)C)C(=O)N[C@@H](CC(C)C)C(=O)N[C@@H](CCC(=O)O)C(=O)N[C@@H](CCC(N)=O)C(=O)N[C@@H](C)C(=O)N[C@@H](CCCNC(=N)N)C(=O)N[C@@H](C)C(=O)N[C@@H](CCCNC(=N)N)C(=O)N[C@@H](C)C(=O)N[C@@H](C)C(=O)N[C@@H](CCCNC(=N)N)C(=O)N[C@@H](CCC(=O)O)C(=O)N[C@@H](CCC(N)=O)C(=O)N[C@@H](C)C(=O)N[C@@H](CCCCNC(=O)COCCOCCNC(=O)COCCOCCNC(=O)CC[C@H](NC(=O)CC[C@H](NC(=O)CCCCCCCCCCCCCCCCCCC(=O)O)C(=O)O)C(=O)O)C(=O)N[C@H](C(=O)N[C@@H](CC(N)=O)C(=O)N[C@@H](C)C(=O)N[C@@H](CCC(=O)O)C(=O)N[C@H](C(=O)N[C@@H](CC(C)C)C(=O)N[C@@H](C)C(=O)N[C@@H](CCC(=O)O)C(=O)N[C@H](C(N)=O)[C@@H](C)CC)[C@@H](C)CC)[C@@H](C)O)[C@@H](C)CC)[C@@H](C)CC)C(C)C)C(C)C [compound 68] (H-IVLSLDVPIGLLQILLEQARARAAREQAK([AEEA-AEEA-γGlu-γGlu-C20 diacid])TNAEILAEI-NH2) |  | 

Further lines, the compound ahead of its results:

SMILES | EC50 (hCRHR1) [µM] | EC50 (hCRHR2) [µM] | pEC50 (hCRHR1) | pEC50 (hCRHR2)
CC[C@H](C)[C@H](N)C(=O)N[C@H](C(=O)N[C@@H](CC(C)C)C(=O)N[C@@H](CO)C(=O)N[C@@H](CC(C)C)C(=O)N[C@@H](CC(=O)O)C(=O)N[C@H](C(=O)N1CCC[C@H]1C(=O)N[C@H](C(=O)NCC(=O)N[C@@H](CC(C)C)C(=O)N[C@@H](CC(C)C)C(=O)N[C@@H](CCC(N)=O)C(=O)N[C@H](C(=O)N[C@@H](CC(C)C)C(=O)N[C@@H](CC(C)C)C(=O)N[C@@H](CCC(=O)O)C(=O)N[C@@H](CCC(N)=O)C(=O)N[C@@H](C)C(=O)N[C@@H](CCCNC(=N)N)C(=O)N[C@@H](C)C(=O)N[C@@H](CCCNC(=N)N)C(=O)N[C@@H](CO)C(=O)N[C@@H](C)C(=O)N[C@@H](CCCNC(=N)N)C(=O)N[C@@H](CCC(=O)O)C(=O)N[C@@H](CCC(N)=O)C(=O)N[C@@H](C)C(=O)N[C@@H](CCCCNC(=O)COCCOCCNC(=O)COCCOCCNC(=O)CC[C@H](NC(=O)CC[C@H](NC(=O)CCCCCCCCCCCCCCCCCCC(=O)O)C(=O)O)C(=O)O)C(=O)N[C@H](C(=O)N[C@@H](CC(N)=O)C(=O)N[C@@H](C)C(=O)N[C@@H](CCC(=O)O)C(=O)N[C@H](C(=O)N[C@@H](CC(C)C)C(=O)N[C@@H](C)C(=O)N[C@@H](CCC(=O)O)C(=O)N[C@H](C(N)=O)C(C)C)[C@@H](C)CC)[C@@H](C)O)[C@@H](C)CC)[C@@H](C)CC)C(C)C)C(C)C [compound 60] (H-IVLSLDVPIGLLQILLEQARARSAREQAK([AEEA-AEEA-γGlu-γGlu-C20 diacid])TNAEILAEV-NH2) | 25.1 | 0.000501 |  | 
CC[C@H](C)[C@H](N)C(=O)N[C@H](C(=O)N[C@@H](CC(C)C)C(=O)N[C@@H](CO)C(=O)N[C@@H](CC(C)C)C(=O)N[C@@H](CC(=O)O)C(=O)N[C@H](C(=O)N1CCC[C@H]1C(=O)N[C@H](C(=O)NCC(=O)N[C@@H](CC(C)C)C(=O)N[C@@H](CC(C)C)C(=O)N[C@@H](CCC(N)=O)C(=O)N[C@H](C(=O)N[C@@H](CC(C)C)C(=O)N[C@@H](CC(C)C)C(=O)N[C@@H](CCC(=O)O)C(=O)N[C@@H](CCC(N)=O)C(=O)N[C@@H](C)C(=O)N[C@@H](CCCNC(=N)N)C(=O)N[C@@H](C)C(=O)N[C@@H](CCCNC(=N)N)C(=O)N[C@@H](C)C(=O)N[C@@H](C)C(=O)N[C@@H](CCCNC(=N)N)C(=O)N[C@@H](CCC(=O)O)C(=O)N[C@@H](CCCNC(=N)N)C(=O)N[C@@H](C)C(=O)N[C@@H](CCCCNC(=O)COCCOCCNC(=O)COCCOCCNC(=O)CC[C@H](NC(=O)CC[C@H](NC(=O)CCCCCCCCCCCCCCCCCCC(=O)O)C(=O)O)C(=O)O)C(=O)N[C@H](C(=O)N[C@@H](CC(N)=O)C(=O)N[C@@H](C)C(=O)N[C@@H](CCC(=O)O)C(=O)N[C@H](C(=O)N[C@@H](CC(C)C)C(=O)N[C@@H](C)C(=O)N[C@@H](CCC(=O)O)C(=O)N[C@H](C(N)=O)C(C)C)[C@@H](C)CC)[C@@H](C)O)[C@@H](C)CC)[C@@H](C)CC)C(C)C)C(C)C [compound 66] (H-IVLSLDVPIGLLQILLEQARARAARERAK([AEEA-AEEA-γGlu-γGlu-C20 diacid])TNAEILAEV-NH2) |  |  | 4.30 | 9.50
